Measured values published in patent US20220111065A1, “MOLECULAR ADJUVANT” (ADC THERAPEUTICS SA, priority 2018, published 2022).

Columns and labels:
[1] = system: CD25-positive acute myeloid leukemia (AML); experiment: Phase 1 study of ADCx25, weekly fractionated dosing, in relapsed or refractory AML/ALL (Example 2); assay type: in vivo, human
Excerpt: Patients with relapsed or refractory cluster of differentiation 25 (CD25)-positive acute myeloid leukemia (AML) or CD25-positive acute lymphoblastic leukemia (ALL) who have failed, or are intolerant to, any established therapy known to provide clinical benefit at current state of disease. Patients with myelodysplastic syndrome who have received treatment with hypomethylating agents and subsequently present with CD25+ AML and who failed, or are ineligible for standard induction therapy, are eligible for treatment with ADCx25.
Assessment of response to treatment with ADCX25 will be based on bone marrow samples (aspirate or biopsy, if aspirate unattainable). The activity of ADCX25 will be evaluated based on the Investigator's evaluation of the patient's response to ADCX25 as CR, CRi, PR, PD, or NR as defined herein.
ADCX25 is a sterile formulation containing PBD-conjugated HuMax®-TAC (DAR≥1), HuMax®-TAC (DAR=0), and SG3249. It is provided pre-formulated in 10-mL glass vials containing approximately 30 mg of ADCX25 per vial (deliverable volume 5.4 mL at 6 mg/mL). The appropriate quantity of ADCX25 will be diluted in 50 mL of 5% dextrose in water (D5W).
Patients will receive a 1-hour intravenous (IV) infusion of ADCX25 on Day 1 of Cycle 1. […]

[2] = system: MC38 cells; experiment: Re-challenge of tumor-free survivors from MC38 efficacy study (Example 3); assay type: in vivo, mouse; settings: complete responders of Example 1 re-implanted with MC38 cells in contralateral flank; no treatment in re-challenge (FIG. 4)
Experimental: On Day 1 of the re-challenge study, 5×10^5 MC38 cells (0.1 mL suspension) were subcutaneously implanted into the left flank (contralateral to the original cell implant) and tumor growth was monitored. No ADC or anti-PD-1 treatment was administered in the rechallenge study.
Animal handling and tumour measurement was as in Example 1 unless otherwise stated.

[3] = system: CT26 cells; experiment: Re-challenge of tumor-free survivors from CT26 efficacy study (Example 5); assay type: in vivo, mouse; settings: complete responders of Example 4 re-implanted with CT26 cells in contralateral flank; no treatment in re-challenge (FIG. 7)
Experimental: On Day 1 of the re-challenge study […] CT26 cells (0.1 mL suspension) were subcutaneously implanted into the left flank (contralateral to the cell implant of example 4) and tumor growth was monitored and measured as described in example 4.
No treatment was administered in the re-challenge study.

[4] = system: MC38 cells; experiment: MC38 efficacy with CD8+ T-cell depletion by anti-CD8 (Example 6); assay type: in vivo, mouse; settings: CD8+ T-cells depleted with anti-CD8-2.43 antibody (FIG. 8, FIG. 9)
Excerpt: Treatment may cause partial regression (PR) or complete regression (CR) of the tumor in an animal.
In a PR response, the tumor volume is 50% or less of its Day 1 volume for three consecutive measurements during the course of the study, and equal to or greater than 13.5 mm^3 for one or more of these three measurements.
In a CR response, the tumor volume is less than 13.5 mm^3 for three consecutive measurements during the study.
Any animal with a CR response at the end of the study was additionally classified as a tumor-free survivor (TFS).
Animals were scored only once during the study for a PR or CR event and only as CR if both PR and CR criteria were satisfied.
The Coefficient of Drug Interaction (CDI) (11) in were assessed for subadditive, additive, or supra-additive (synergism) properties on Day 21, the last day all evaluable animals remained on study.
The CDI was determined according to the equation below:
Where, • x=mean tumor volume • AB=xAB/xC • A=xA/xC • B=xB/xC […]
On the day of implant 5×10^5 MC38 cells (0.1 mL suspension) were subcutaneously implanted into the right flank of each test animal. Tumors were monitored as their volumes approached the target range of 80-120 mm^3. […]
Tumors were measured twice per week until the study was ended (day29 for anti-CD8+surADCx25 and anti-CD8+anti-PD1+surADCx25 groups; day 44 for surADCx25 alone and surADCx25+anti-CD8). […]

[5] = system: selected advanced solid tumors; experiment: Phase 1b dose-escalation study of Camidanlumab Tesirine in advanced solid tumors (Example 9); assay type: in vivo, human
Excerpt: This is a report of preliminary data from a Phase 1b trial of Camidanlumab Tesirine (NCT03621982; ADC Therapeutics) in patients (pt) with selected advanced solid tumors […] (AST) who have failed existing therapies.
This multicenter, open-label, dose-escalation (part 1), and dose-expansion (part 2) study is currently enrolling subjects (aged≥18 years) with selected AST. The primary objective is to evaluate the safety and tolerability and to identify the recommended dose. Secondary objectives are to assess preliminary antitumor activity, pharmacokinetics (PK), and immunogenicity.
Subjects receive 1-hour intravenous infusions of Camidanlumab Tesirine every 3 weeks (Q3W) from a starting dose cohort of 20 μg/kg. Subsequent cohorts are enrolled at escalating doses according to a 3+3 design.

[6] = system: advanced melanoma; settings: phase III trials; cited from earlier work
[7] = 6 subjects, 20-30 μg/kg Q3W i.v., preliminary

Molecule	clinical response of AML ([1]; 2 subjects with AML who had previously received bone marrow stem cell transfers)	response to treatment ([1]; Patient 1: relapsed AML FAB M0, 30 ug/kg QW cohort, prior allogenic transplant, after 5 cycles)	development of new tumors on re-challenge [2]	development of new tumors on re-challenge [3]	anti-tumor activity when CD8+ T-cells are depleted [4]	number of subjects with stable disease ([5]; 20 μg/kg Q3W)	number of subjects with stable disease ([5]; 30 μg/kg Q3W, reported a few days after the cutoff date)	dose-limiting toxicities ([5]; 6 subjects, 20-30 μg/kg Q3W i.v., 21-day reporting period, preliminary, as of Apr. 16, 2019)	best response recorded (response evaluation criteria in solid tumors) [5, 7]	most common (≥3 pts) adverse events regardless of relationship [5, 7]	related high-grade AEs or serious AEs [5, 7]	overall survival compared to the standard of care (temozolomide or dacarbazine) [6]
ADCx25: human antibody against human CD25 (AB12, HuMax-TAC) attached to a pyrrolobenzodiazepine (PBD) warhead via a cleavable linker	complete remission	CRi	did not develop new tumors	did not develop new tumors	dependent on CD8+ T-cells	2	2	No dose-limiting toxicities	Stable disease	fatigue and nausea	no reported grade ?3 AEs or serious AEs considered related	–
tremelimumab: anti-CTLA4 antibody (antibody, Tremelimumab VH; Tremelimumab VL, anti-CTLA4 antibody) VH: GVVQPGRSLRLSCAASGFTFSSYGMHWVRQAPGKGLEWVAVIWYDGSNKYYADSVKGRFTISRDNSKNTLYLQMNSLRAEDTAVYYCARDPRGATLYYYYYGMDVWGQGTTVTVSSASTKGPSVFPLAPCSRSTSESTAALGCLVKDYFPEPVTVSWNSGALTSGVH VL: PSSLSASVGDRVTITCRASQSINSYLDWYQQKPGKAPKLLIYAASSLQSGVPSRFSGSGSGTDFTLTISSLQPEDFATYYCQQYYSTPFTFGPGTKVEIKRTVAAPSVFIFPPSDEQLKSGTASVVCLLNNFYPREAKV	–	–	–	–	–	–	–	–	–	–	–	did not significantly increase
